Source: US10441562B2, “Aromatic farnesyl compound and application thereof” (INSTITUTE OF MICROBIOLOGY, CHINESE ACADEMY OF SCIENCES, priority 2015, dated 2019)
Like-named read-outs stand apart in the source and are kept apart here.

Experiments:
Type in all cases: biochemical
aldose reductase = aldose reductase (Homo sapiens, UniProt P15121); experiment: aldose reductase inhibitory activity test in vitro
Method: Experimental procedure: the following reagents are added into 96-well plates in sequence and the mixture ratios of different groups are as followings:
Test group: 10 μL compound solution+25 μL (0.1 mM) NADPH solution+25 μL PBS buffer solution+15 μL aldose reductase diluent
Blank group: 25 μL (0.1 mM) NADPH solution+35 μL PBS buffer solution+15 μL aldose reductase diluent
Background group: 25 μL (0.1 mM) NADPH solution+60 μL PBS buffer solution+15 μL aldose reductase diluent
After adding the reagents, the 96-well plate is standed for 10 min at room temperature to make the compound and the enzyme react completely. Add 25 μL 10 mM D, L glyceraldehyde solution which is used as substrate into the groups except for background group, and incubate the solution at 37 °C for 30 min. Then detect the optical density of each well at 340 nm.

α-glucosidase = biological target: T1, α-glucosidase (Saccharomyces cerevisiae, UniProt P53341); experiment: α-glucosidase inhibitory activity test in vitro
T1 construct: purchased Sigma Corporation G5003
Method: Add 25 μL α-glucosidase water solution (0.2 U/mL) and 175 μL phosphate buffer (50 mM, pH 7.0) into 25 μL different concentration of the above test solutions. The mixed solution is standed for 10 min at room temperature, and then 25 μL 4-nitrophenyl-α-D-glucopyranoside water solution (2.5 mM) is added into the mixed solution. After the solution is incubated at 37 °C for 30 min and centrifuged at 5000 rpm for 5 minutes, 150 uL supernatant is added into 96-well plates and the absorbance is detected at 405 nm.
Blank group: the test solution is replaced by 25 μL phosphate buffer (50 mM, pH 7.0); blank control group: the test solution is replaced by 25 μL phosphate buffer (50 mM, pH 7.0), meanwhile α-glucosidase water solution is replaced by 25 μL phosphate buffer (50 mM, pH 7.0); sample control group: α-glucosidase water solution is replaced by 25 μL phosphate buffer (50 mM, pH 7.0).
(§1) Repeat each of the above experiment groups for 3 times, and then average the results.
IC50=[CL(IH−50)+CH(50−IL)]/(IH−IL) CL: low concentration value; CH: high concentration value; IH: inhibition rate in high concentration; IL: inhibition rate in low concentration

HMG-CoA reductase = biological target: T2, HMG-CoA reductase (Homo sapiens, UniProt P04035); experiment: HMG-CoA reductase inhibitory activity test in vitro
T2 sequence (P04035 426-888 limits assumed): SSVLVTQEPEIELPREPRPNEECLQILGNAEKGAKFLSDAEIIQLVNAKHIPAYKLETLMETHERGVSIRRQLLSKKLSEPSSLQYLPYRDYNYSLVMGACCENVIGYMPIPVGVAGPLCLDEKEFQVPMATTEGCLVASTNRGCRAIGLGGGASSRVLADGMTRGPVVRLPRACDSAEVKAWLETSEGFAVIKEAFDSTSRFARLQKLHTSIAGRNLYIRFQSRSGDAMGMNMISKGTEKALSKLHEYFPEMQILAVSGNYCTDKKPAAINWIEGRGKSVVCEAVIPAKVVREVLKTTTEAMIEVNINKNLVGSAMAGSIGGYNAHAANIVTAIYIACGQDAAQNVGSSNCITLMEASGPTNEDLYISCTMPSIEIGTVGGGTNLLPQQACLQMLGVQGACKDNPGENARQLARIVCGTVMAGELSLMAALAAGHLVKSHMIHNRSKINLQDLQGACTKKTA
Method: Add 25 μL HMG-CoA reductase water solution (0.2 U/mL), 25 μL NADPH water solution (0.2 U/mL) and 24 μL phosphate buffer (50 mM, pH 7.0) into 1 μL different concentration of the above test solution. The mixed solution is standed for 10 min at room temperature, and then 25 μL HMG-CoA is added into the mixed solution. After the solution is incubated at 37∞ for 30 min and centrifuged at 5000 rpm for 5 minutes, 80 uL supernatant is added into 96-well plates and the absorbance is detected at 550 nm.
as §1

[1] = biological target: T3, protein tyrosine phosphatase 1B (PTP-1B) (Homo sapiens, UniProt P18031); experiment: PTP-1B inhibitory activity test in vitro
T3 sequence (P18031 1-435): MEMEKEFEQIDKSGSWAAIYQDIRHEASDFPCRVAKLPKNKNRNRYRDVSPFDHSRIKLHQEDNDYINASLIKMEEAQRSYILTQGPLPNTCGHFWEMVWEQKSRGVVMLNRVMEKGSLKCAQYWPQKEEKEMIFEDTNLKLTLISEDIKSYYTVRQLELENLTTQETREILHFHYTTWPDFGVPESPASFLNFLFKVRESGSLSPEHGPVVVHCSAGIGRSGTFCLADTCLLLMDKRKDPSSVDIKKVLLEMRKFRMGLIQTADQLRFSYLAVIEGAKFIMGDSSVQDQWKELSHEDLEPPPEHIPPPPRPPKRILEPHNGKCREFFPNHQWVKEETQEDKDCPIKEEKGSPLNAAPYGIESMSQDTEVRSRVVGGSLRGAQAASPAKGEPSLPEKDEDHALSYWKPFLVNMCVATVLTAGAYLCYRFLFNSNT
Method: Experimental procedure: the following reagents are added into 96-well plates in sequence and the mixture ratios of different groups are as followings: Test group: 50 μL compound solution+50 μL 170 μg/mL PTP-1B solution […] Blank group: 50 μL buffer solution+50 μL 170 μg/mL PTP-1B solution Background group: 50 μL compound solution+50 μL buffer solution After adding the reagents, the 96-well plate is […] for 10 min at room temperature to make the compound and the enzyme react completely. Add 50 μL 1 mM pNPP solution which is used as substrate and incubate the mixed solution at 37 °C for 30 min. Then add 50 μL 3M NaOH into each well of the plate to stop the reaction and the optical density is detected at […].

dipeptidyl peptidase-4 = biological target: T4, dipeptidyl peptidase-4 (Homo sapiens, UniProt P27487); experiment: dipeptidyl peptidase-4 inhibitory activity test in vitro (DPP-4 inhibitor screening kit)
T4 construct: purchased
Description: The above compounds are detected by DPP-4 inhibitor screening kit.

[2] = read-out: α-glucosidase inhibitory activity (IC50)

T1 sequence (P53341 whole entry): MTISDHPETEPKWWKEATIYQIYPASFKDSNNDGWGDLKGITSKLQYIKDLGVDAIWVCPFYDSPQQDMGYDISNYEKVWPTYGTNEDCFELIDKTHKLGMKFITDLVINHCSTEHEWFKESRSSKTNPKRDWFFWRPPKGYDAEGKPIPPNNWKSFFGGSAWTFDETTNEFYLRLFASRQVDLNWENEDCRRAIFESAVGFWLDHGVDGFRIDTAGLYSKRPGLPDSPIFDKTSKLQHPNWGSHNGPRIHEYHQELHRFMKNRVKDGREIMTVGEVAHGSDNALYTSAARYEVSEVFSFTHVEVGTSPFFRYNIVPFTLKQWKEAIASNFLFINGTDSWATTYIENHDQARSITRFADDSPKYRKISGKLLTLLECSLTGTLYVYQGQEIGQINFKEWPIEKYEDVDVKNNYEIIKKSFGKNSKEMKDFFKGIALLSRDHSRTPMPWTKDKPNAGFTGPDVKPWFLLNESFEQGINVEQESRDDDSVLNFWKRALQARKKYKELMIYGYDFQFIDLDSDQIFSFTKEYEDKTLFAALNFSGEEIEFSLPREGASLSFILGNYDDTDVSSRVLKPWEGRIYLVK
T4 sequence (P27487 whole entry, species assumed): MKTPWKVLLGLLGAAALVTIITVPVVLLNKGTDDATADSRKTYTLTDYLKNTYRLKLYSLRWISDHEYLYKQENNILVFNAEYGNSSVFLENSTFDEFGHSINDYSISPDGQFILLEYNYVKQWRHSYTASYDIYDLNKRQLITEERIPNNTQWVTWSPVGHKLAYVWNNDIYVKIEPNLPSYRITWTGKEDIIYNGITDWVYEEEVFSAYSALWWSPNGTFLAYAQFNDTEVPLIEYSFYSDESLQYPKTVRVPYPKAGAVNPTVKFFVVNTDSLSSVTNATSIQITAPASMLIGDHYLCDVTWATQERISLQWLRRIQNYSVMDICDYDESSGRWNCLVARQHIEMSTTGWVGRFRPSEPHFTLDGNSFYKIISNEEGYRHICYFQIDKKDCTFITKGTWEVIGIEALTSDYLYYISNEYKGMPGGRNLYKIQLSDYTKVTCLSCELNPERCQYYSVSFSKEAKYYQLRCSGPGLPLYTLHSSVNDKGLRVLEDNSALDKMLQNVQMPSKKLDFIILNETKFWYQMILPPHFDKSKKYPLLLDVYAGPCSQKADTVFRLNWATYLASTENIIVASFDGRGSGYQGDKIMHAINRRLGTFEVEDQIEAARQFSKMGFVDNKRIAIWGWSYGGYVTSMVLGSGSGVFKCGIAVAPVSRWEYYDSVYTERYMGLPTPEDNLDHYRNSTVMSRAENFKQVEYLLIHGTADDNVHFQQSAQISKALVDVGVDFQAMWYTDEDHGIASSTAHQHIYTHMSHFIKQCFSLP

SMILES	IC50 (aldose reductase) [µM]	IC50 (α-glucosidase; [2]) [µM]	IC50 (HMG-CoA reductase) [µM]	IC50 [1] [µM]	IC50 (dipeptidyl peptidase-4) [µM]	IC50 (α-glucosidase) [µM]
CC(C)=CCC/C(C)=C/CCC1=C[C@@H](c2ccccc2O)OC1=O [S19, (S,E)-3-(4,8-dimethylnona-3,7-dien-1-yl)-5-(2-hydroxyphenyl)furan-2(5H)-one]	25.4	0.52	5.5	11.5	20.2	–
CC(C)=CCC/C(C)=C/CCC1=C[C@@H](c2ccc3ccccc3c2)OC1=O [S17, (S,E)-3-(4,8-dimethylnona-3,7-dien-1-yl)-5-(naphthalen-2-yl)furan-2 (5H)-one]	20.2	6.32	42.2	10.1	13.6	–
CC(C)=CCC/C(C)=C/CCC1=C[C@H](c2ccc3ccccc3c2)OC1=O [S2]	19.8	7.4	49.8	13.1	12.5	–
CC(C)=CCC/C(C)=C/CCC1=C[C@H](c2ccccc2O)OC1=O [S4, (R,E)-3-(4,8-dimethylnona-3,7-dien-1-yl)-5-(2-hydroxyphenyl)furan-2 (5-H)-one]	23.5	0.21	4.7	11.1	21.2	–
CC(C)=CCCC1=C[C@H](c2cc(O)ccc2O)OC1=O [S37, (R)-5-(2,5-dihydroxyphenyl)-3-(4-methylpent-3-en-1-yl)furan-2(5H)-one]	12.6	1.32	65.2	12.3	15.4	–
CC(C)=CCC/C(C)=C/CCC1=C[C@H](c2cc(F)c(F)c(F)c2)OC1=O [S15, (R,E)-3-(4,8-dimethylnona-3,7-dien-1-yl)-5-(3,4,5-trifluorophenyl)furan-2(5H)-one]	54.9	1.27	38.2	25.4	12.1	–
CC(C)=CCCC1=C[C@@H](c2cc(O)ccc2O)OC1=O [S38, (S)-5-(2,5-dihydroxyphenyl)-3-(4-methylpent-3-en-1-yl)furan-2(5H)-one]	67.5	1.23	12.5	9.8	12.9	–
COCOc1ccccc1[C@H]1C=C(CC/C=C(\C)CCC=C(C)C)C(=O)O1 [S3]	38.3	8.65	8.9	7.8	14.5	–
CC(C)=CCC/C(C)=C/CCC1=C[C@@H](c2cc(F)c(F)c(F)c2)OC1=O [S30, (S,E)-3-(4,8-dimethylnona-3,7-dien-1-yl)-5-(3,4,5-trifluorophenyl)furan-2(5H)-one]	53.4	1.25	24.2	21.1	11.6	–
COc1ccc(OC)c([C@H]2C=C(CC/C=C(\C)CCC=C(C)C)C(=O)O2)c1 [S12, (R,E)-5-(2,5-dimethoxyphenyl)-3-(4,8-dimethylnona-3,7-dien-1-yl)furan-2(5H)-one]	26.1	11.5	4.4	11.8	8.8	–
C/C(C=O)=C\CC/C(C)=C/CC/C(=C/Cc1cc(O)ccc1O)C(=O)O [S35, (2Z,5E,9E)-2-(2-(2,5-dihydroxyphenyl)ethylidene)-6,10-dimethyl-11-oxo undeca-5,9-dienoic acid]	5.6	–	20.7	12.3	7.8	12.3

Continued, in another order:

IC50 (aldose reductase) [µM]	IC50 (α-glucosidase; [2]) [µM]	IC50 (HMG-CoA reductase) [µM]	IC50 [1] [µM]	IC50 (dipeptidyl peptidase-4) [µM]	SMILES	IC50 (α-glucosidase) [µM]
63.2	1.06	8.1	5.6	31.5	CC(C)=CCC/C(C)=C/CCC1=C[C@H](c2ccc(C)cc2)OC1=O [S6, (R,E)-3-(4,8-dimethylnona-3,7-dien-1-yl)-5-(p-tolyl)furan-2(5H)-one]	–
59	0.58	4.2	15.5	9.2	CCc1ccc([C@H]2C=C(CC/C=C(\C)CCC=C(C)C)C(=O)O2)cc1 [S7, (R,E)-3-(4,8-dimethylnona-3,7-dien-1-yl)-5-(4-ethylphenyl)furan-2(5H)-one]	–
4.9	34.2	7.4	8.1	10.2	CC(C)=CCC/C(C)=C/CCC1=C[C@H](c2ccc([N+](=O)[O-])cc2)OC1=O [S11, (R,E)-3-(4,8-dimethylnona-3,7-dien-1-yl)-5-(4-nitrophenyl)furan-2(5H)-one]	–
1.2	0.23	15.2	17.6	15.8	CC(C)=CCC/C(C)=C/CCC1=C[C@@H](c2ccc(C(C)(C)C)cc2)OC1=O [S24, (S,E)-5-(4-(tert-butyl)phenyl)-3-(4,8-dimethylnona-3,7-dien-1-yl)furan-2 (5H)-one]	–
101	52.1	1.5	16.5	18.5	COc1ccc([C@@H]2C=C(CC/C=C(\C)CCC=C(C)C)C(=O)O2)cc1 [S25, (S,E)-3-(4,8-dimethylnona-3,7-dien-1-yl)-5-(4-methoxyphenyl)furan-2(5H)-one]	–
55.6	0.92	4.2	16.4	9.5	CCc1ccc([C@@H]2C=C(CC/C=C(\C)CCC=C(C)C)C(=O)O2)cc1 [S22, (S,E)-3-(4,8-dimethylnona-3,7-dien-1-yl)-5-(4-ethylphenyl)furan-2(5H)-one]	–
